#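 In this assay, cells in 96-well plates receive the compound at five concentrations for 48 hours. Endpoints are linearly interpolated between the surrounding concentrations. The concentration for full growth arrest is given as TGI.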
# How the values were obtained:
# Experiment in all cases: NCI-60 cell line screen, 48 h
# HT29 colon = tested on: HT29 colon
# PC-3 prostate = tested on: PC-3 prostate
# KM12 colon = tested on: KM12 colon
# COLO 205 colon = tested on: COLO 205 colon
# RXF 393 renal = tested on: RXF 393 renal
# CCRF-CEM leukemia = tested on: CCRF-CEM leukemia
# A498 renal = tested on: A498 renal
# OVCAR-4 ovarian = tested on: OVCAR-4 ovarian
# SN12C renal = tested on: SN12C renal
# OVCAR-3 ovarian = tested on: OVCAR-3 ovarian
# U251 CNS = tested on: U251 CNS
# UO-31 renal = tested on: UO-31 renal
# EKVX NSCLC = tested on: EKVX NSCLC
# HCT-15 colon = tested on: HCT-15 colon
# SK-MEL-5 melanoma = tested on: SK-MEL-5 melanoma
# NCI-H226 lung = tested on: NCI-H226 lung
# ACHN renal = tested on: ACHN renal
# SK-MEL-2 melanoma = tested on: SK-MEL-2 melanoma
# A549 NSCLC = tested on: A549 NSCLC
# CAKI-1 renal = tested on: CAKI-1 renal
SMILES,TGI (HT29 colon),TGI (PC-3 prostate),TGI (KM12 colon),TGI (COLO 205 colon),TGI (RXF 393 renal),TGI (CCRF-CEM leukemia),TGI (A498 renal),TGI (OVCAR-4 ovarian),TGI (SN12C renal),TGI (OVCAR-3 ovarian),TGI (U251 CNS),TGI (UO-31 renal),TGI (EKVX NSCLC),TGI (HCT-15 colon),TGI (SK-MEL-5 melanoma),TGI (NCI-H226 lung),TGI (ACHN renal),TGI (SK-MEL-2 melanoma),TGI (A549 NSCLC),TGI (CAKI-1 renal)
CC1=C(SCCO)C(=O)c2ccccc2C1=O,38.7 µM,25.1 µM,26.8 µM,24.1 µM,26.3 µM,> 100 µM,30.6 µM,15.3 µM,29.7 µM,15.3 µM,26.1 µM,20.3 µM,27.5 µM,25.3 µM,26.6 µM,29.1 µM,13 µM,24.5 µM,32.8 µM,28.8 µM
Nc1ncnc2c1ncn2[C@@H]1O[C@H](COP(=O)(O)OP(=O)(O)OC[C@H]2O[C@@H](OCCCO)[C@H](O)[C@@H]2O)[C@@H](O)[C@H]1O,> 100 µM,> 100 µM,> 100 µM,> 100 µM,> 100 µM,> 100 µM,> 100 µM,> 100 µM,> 100 µM,> 100 µM,> 100 µM,> 100 µM,> 100 µM,> 100 µM,> 100 µM,> 100 µM,> 100 µM,> 100 µM,> 100 µM,> 100 µM
CCCCC(=O)c1c(O)ccc2c(C)cc(=O)oc12,> 100 µM,> 100 µM,> 100 µM,> 100 µM,> 100 µM,> 100 µM,> 100 µM,> 100 µM,> 100 µM,> 100 µM,> 100 µM,> 100 µM,> 100 µM,> 100 µM,> 100 µM,> 100 µM,> 100 µM,> 100 µM,> 100 µM,> 100 µM
